PMC5793061, “Functional Expression and Characterization of the Recombinant N-Acetyl-Glucosamine/N-Acetyl-Galactosamine-Specific Marine Algal Lectin BPL3” (Marine Drugs, 2018)

How the values were obtained:
Assay type in all cases: binding
rD2BPL3 [1] = target: T1, rD2BPL3 (Bryopsis plumosa, UniProt A0A1J0CRG2); assay: inhibition of hemagglutination, human erythrocytes; details: PBS, 4 HU lectin, human type B erythrocytes, two-fold dilutions
T1 construct: artificial tandem repeat of two identical BPL3 domains in one chain, 4-residue linker
T1 sequence (A0A1J0CRG2 29-134): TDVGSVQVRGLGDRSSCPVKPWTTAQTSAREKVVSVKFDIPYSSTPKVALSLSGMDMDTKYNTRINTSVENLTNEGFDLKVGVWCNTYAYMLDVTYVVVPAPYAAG
Source text: inhibition of hemagglutination, human erythrocytes on rD2BPL3

native BPL3 [2] = target: T2, native BPL3 (Bryopsis plumosa, UniProt A0A1J0CRG2); assay: inhibition of hemagglutination, human erythrocytes; details: PBS, 4 HU lectin, human type B erythrocytes, two-fold dilutions
T2 construct: native purification from alga by GalNAc-agarose, eluted with GlcNAc; not pure, BPL4 band seen; may consist of 2-6 domains
T2 sequence (A0A1J0CRG2 29-134): T1 sequence (A0A1J0CRG2 29-134)
Source text: inhibition of hemagglutination, human erythrocytes on native BPL3

rD2BPL3 [3] = target: T1, rD2BPL3; assay: glycan microarray, biotinylated lectin, Cy3-streptavidin; details: 50 μg/mL lectin; glycan immobilised through spacer
Source text: glycan microarray, biotinylated lectin, Cy3-streptavidin on rD2BPL3

native BPL3 [4] = target: T2, native BPL3; assay: as above; details: 50 μg/mL lectin; glycan immobilised through spacer
Source text: glycan microarray, biotinylated lectin, Cy3-streptavidin on native BPL3

Row | Compound | Minimum Inhibitory Concentration / rD2BPL3 (rD2BPL3 [1]) [mM] | Minimum Inhibitory Concentration / Native BPL3 (native BPL3 [2]) [mM] | RFU (Normalized) / rD2BPL3 (rD2BPL3 [3]) [RFU] | RFU (Normalized) / Native BPL3 (native BPL3 [4]) [RFU]
1 | CC(=O)N[C@H]1C(O)O[C@H](CO)[C@@H](O)[C@@H]1O (stereo partly drawn) [N-acetyl-D-glucosamine] | 62.5 | 125 | – | –
2 | CC(=O)N[C@H]1C(O)O[C@H](CO)[C@H](O)[C@@H]1O (stereo partly drawn) [N-acetyl-D-galactosamine] | 31.25 | 62.5 | – | –
3 | D-Cellose-β-Sp1 [compound 87] | – | – | 1119 | –
4 | GlcNAc-β-1,2-Man-α-Sp [compound 45] | – | – | 1290 | –
5 | α-Man-Sp [compound 3] | – | – | 1322 | 1025
6 | α-Fuc-Sp [compound 4] | – | – | 1313 | –
